# Source: patent US10375962B2, “Heterocycle derivatives as pesticides” (BAYER CROPSCIENCE AKTIENGESELLSCHAFT, priority 2016, dated 2019)
# What was measured:
# [1] = tested on: green peach aphid (Myzus persicae); experiment: Myzus persicae - spray test (Chinese cabbage leaf discs); format: in vivo; conditions: after 5 days
# Protocol: Solvent: 78 parts by weight of acetone • • 1.5 parts by weight of dimethylformamide Emulsifier: alkylaryl polyglycol ether
# (§1) To produce a suitable active compound formulation, 1 part by weight of active compound is dissolved with the stated parts by weight of solvent and made up with water containing an emulsifier concentration of 1000 ppm until the desired concentration is attained. To produce further test concentrations, the formulation is diluted with emulsifier-containing water.
# Discs of Chinese cabbage leaves (Brassica pekinensis) infested by all stages of the green peach aphid (Myzus persicae) are sprayed with an active compound formulation of the desired concentration.
# After 5 days, the efficacy in % is determined. 100% means that all the aphids have been killed and 0% means that none of the aphids have been killed.
# [2] = tested on: adult houseflies (Musca domestica); experiment: Musca domestica test; format: in vivo; conditions: application rate 100 ppm; after 2 days
# Protocol: (§2) Solvent: dimethyl sulphoxide
# (§3) To produce a suitable active compound formulation, 10 mg of active compound are mixed with 0.5 ml of dimethyl sulphoxide, and the concentrate is diluted with water to the desired concentration.
# Vessels containing a sponge treated with sugar solution and the active compound formulation of the desired concentration are populated with 10 adult houseflies (Musca domestica).
# After 2 days, the kill in % is determined. 100% means that all of the flies have been killed; 0% means that none of the flies have been killed.
# [3] = tested on: engorged adult female cattle ticks (Boophilus microplus); experiment: Boophilus microplus - injection test; format: in vivo; conditions: application rate 20 μg/animal, after 7 days
# Protocol: as §2
# To produce a suitable active compound formulation, 10 mg of active compound are mixed with 0.5 ml of solvent and the concentrate is diluted with solvent to the desired concentration.
# 1 μl of the active compound solution is injected into the abdomen of 5 engorged adult female cattle ticks (Boophilus microplus). The animals are transferred into dishes and kept in a climate-controlled room.
# Efficacy is assessed after 7 days by laying of fertile eggs. Eggs which are not visibly fertile are stored in a climate-controlled cabinet until the larvae hatch after about 42 days. An efficacy of 100% means that none of the ticks has laid any fertile eggs; 0% means that all the eggs are fertile.
# [4] = tested on: unfed adult cat fleas (Ctenocephalides felis); experiment: Ctenocephalides felis - oral test; format: in vivo; conditions: application rate 100 ppm in citrated cattle blood; after 2 days
# Protocol: as §2
# For the purpose of production of a suitable active compound formulation, 10 mg of active compound are mixed with 0.5 ml of dimethyl sulphoxide. Dilution with citrated cattle blood gives the desired concentration.
# About 20 unfed adult cat fleas (Ctenocephalides felis) are placed into a chamber which is closed at the top and bottom with gauze. A metal cylinder whose bottom end is closed with parafilm is placed onto the chamber. The cylinder contains the blood/active compound formulation, which can be imbibed by the fleas through the parafilm membrane.
# After 2 days, the kill in % is determined. 100% means that all of the fleas have been killed; 0% means that none of the fleas have been killed.
# [5] = log P by HPLC on a reversed-phase column (C 18), EEC Directive 79/831 Annex V.A8; format: physicochemical
# Description: Called log P (HCOOH) in the table.
# Called log P (neutral) in the table.
# [6] = tested on: larvae of the mustard beetle (Phaedon cochleariae); experiment: Phaedon cochleariae - spray test; format: in vivo; conditions: after 7 days
# Protocol: Solvent: 78.0 parts by weight of acetone • • 1.5 parts by weight of dimethylformamide
# (§4) Emulsifier: alkylaryl polyglycol ether
# as §1
# Discs of Chinese cabbage leaves (Brassica pekinensis) are sprayed with an active compound formulation of the desired concentration and, after drying, populated with larvae of the mustard beetle (Phaedon cochleariae).
# After 7 days, the efficacy in % is determined. 100% means that all the beetle larvae have been killed and 0% means that none of the beetle larvae have been killed.
# [7] = tested on: adult cat fleas (Ctenocephalides felis); experiment: Ctenocephalides felis - in vitro contact tests with adult cat fleas; format: in vivo; conditions: application rate 5 μg/cm^2; after 48 h
# Protocol: For the coating of the test tubes, 9 mg of active compound are first dissolved in 1 ml of acetone p.a. and then diluted to the desired concentration with acetone p.a. 250 μl of the solution are distributed homogeneously on the inner walls and the base of a 25 ml test tube by turning and rocking on an orbital shaker (rocking rotation at 30 rpm for 2 h). With 900 ppm of active compound solution and internal surface area 44.7 cm^2, given homogeneous distribution, an area-based dose of 5 μg/cm^2 is achieved.
# After the solvent has evaporated off, the tubes are populated with 5-10 adult cat fleas (Ctenocephalides felis), sealed with a perforated plastic lid and incubated in a horizontal position at room temperature and ambient humidity. After 48 h, efficacy is determined. To this end, the test tubes are stood upright and the fleas are knocked to the base of the tube. Fleas which remain motionless at the base or move in an uncoordinated manner are considered to be dead or moribund.
# 100% efficacy means that all the fleas were dead or moribund. 0% efficacy means that no fleas were harmed.
# [8] = tested on: L1 larvae of the Australian sheep blowfly (Lucilia cuprina); experiment: Lucilia cuprina test; format: in vivo; conditions: application rate 100 ppm; after 2 days
# Protocol: as §2, §3
# About 20 L1 larvae of the Australian sheep blowfly (Lucilia cuprina) are transferred into a test vessel containing minced horsemeat and the active compound formulation of the desired concentration.
# After 2 days, the kill in % is determined. 100% means that all the larvae have been killed; 0% means that no larvae have been killed.
# [9] = tested on: caterpillars of the armyworm (Spodoptera frugiperda); experiment: Spodoptera frugiperda - spray test; format: in vivo; conditions: maize leaf discs, after 7 days
# Protocol: Solvent: 78.0 parts by weight of acetone • • 1.5 parts by weight of dimethylformamide Emulsifier: alkylaryl polyglycol ether […] To produce further test concentrations, the formulation is diluted with emulsifier-containing water. Leaf discs of maize (Zea mays) are sprayed with an active compound preparation of the desired concentration and, after drying, populated with caterpillars of the armyworm (Spodoptera frugiperda).
# [10] = tested on: green peach aphid (Myzus persicae); experiment: Myzus persicae spray test (bell pepper plants); format: in vivo; conditions: application rate 20 ppm, after 6 days
# Protocol: Solvent: 14 parts by weight of dimethylformamide
# as §4
# as §1, with “water. If the addition of ammonium salts or/and penetrants is required, these are each added in a concentration of 1000 ppm to the formulation solution.” for “water.”
# Bell pepper plants (Capsicum annuum) severely infested with the green peach aphid (Myzus persicae) are treated by spraying with the active compound formulation in the desired concentration.
# After 6 days, the kill in % is determined. 100% means that all of the aphids have been killed; 0% means that none of the aphids have been killed.
# [11] = tested on: southern root-knot nematode (Meloidogyne incognita); experiment: Meloidogyne incognita test; format: in vivo; conditions: application rate 20 ppm; lettuce; after 14 days
# Protocol: Solvent: 125.0 parts by weight of acetone
# To produce a suitable preparation of active compound, 1 part by weight of active compound is mixed with the stated amount of solvent and the concentrate is diluted with water to the desired concentration.
# Vessels are filled with sand, active compound solution, an […] suspension of the southern root-knot nematode (Meloidogyne incognita) and lettuce seeds. The lettuce seeds germinate and the plants develop. The galls develop on the roots.
# After 14 days, the nematicidal efficacy in % is determined by the formation of galls. 100% means that no galls were found; 0% means that the number of galls on the treated plants corresponds to the untreated control.
Compound,LOGP_HCOOH (log P (HCOOH)) ([5]; pH 2.7),LOGP_NEUTRAL (log P (neutral)) ([5]; pH 7.8),"LOGP_HCOOH (log P (HCOOH)) ([5]; acidic range, pH 2.7, 0.1% aqueous formic acid/acetonitrile, 55° C.)","LOGP_NEUTRAL (log P (neutral)) ([5]; neutral range, pH 7.8, 0.001 molar aqueous ammonium hydrogencarbonate/acetonitrile, 55° C.)",efficacy ([1]; application rate 100 g/ha) [%],efficacy ([1]; application rate 500 g/ha) [%],efficacy (kill) [2] [%],efficacy (laying of fertile eggs) [3] [%],efficacy (kill) [4] [%],efficacy ([6]; application rate 100 g/ha) [%],efficacy ([6]; application rate 500 g/ha) [%],efficacy (fleas dead or moribund) [7] [%],efficacy (kill) [8] [%],efficacy ([9]; application rate 100 g/ha) [%],efficacy ([9]; application rate 500 g/ha) [%],efficacy (kill) [10] [%],nematicidal efficacy (formation of galls) [11] [%]
CCS(=O)(=O)c1ccc(-n2ncc3cccnc32)nc1-c1nc2cc(C(F)(F)F)ncc2n1C [Example I-6],2.67,2.63,–,–,100,100,100,90,90,100,100,100,100,100,100,–,–
CCS(=O)(=O)c1ccc(-n2ncc3c(Cl)cccc32)nc1-c1nc2cc(C(F)(F)F)ncc2n1C [Example I-10],–,–,4.27,4.24,–,–,100,80,–,100,100,–,100,100,100,–,–
CCS(=O)(=O)c1ccc(N2Cc3ccc(Cl)cc3C2)nc1-c1nc2cc(C(F)(F)F)ncc2n1C [Example I-18],4.03,3.99,–,–,–,–,80,–,100,100,100,100,100,100,100,98,–
CCS(=O)(=O)c1ccc(-n2nc3cccc(Br)n3c2=O)nc1-c1nc2cc(C(F)(F)F)ncc2n1C [Example I-36],2.70,2.72,–,–,–,–,–,–,–,–,–,–,–,–,–,–,100

# Now from value to compound, other results behind:
LOGP_HCOOH (log P (HCOOH)) ([5]; pH 2.7),LOGP_NEUTRAL (log P (neutral)) ([5]; pH 7.8),"LOGP_HCOOH (log P (HCOOH)) ([5]; acidic range, pH 2.7, 0.1% aqueous formic acid/acetonitrile, 55° C.)","LOGP_NEUTRAL (log P (neutral)) ([5]; neutral range, pH 7.8, 0.001 molar aqueous ammonium hydrogencarbonate/acetonitrile, 55° C.)",Compound,efficacy ([1]; application rate 100 g/ha) [%],efficacy ([1]; application rate 500 g/ha) [%],efficacy (kill) [2] [%],efficacy (laying of fertile eggs) [3] [%],efficacy (kill) [4] [%],efficacy ([6]; application rate 100 g/ha) [%],efficacy ([6]; application rate 500 g/ha) [%],efficacy (fleas dead or moribund) [7] [%],efficacy (kill) [8] [%],efficacy ([9]; application rate 100 g/ha) [%],efficacy ([9]; application rate 500 g/ha) [%],efficacy (kill) [10] [%],nematicidal efficacy (formation of galls) [11] [%]
4.41,4.39,–,–,CCS(=O)(=O)c1ccc(-n2ccc3cc(Cl)cnc32)nc1-c1nc2cc(C(F)(F)F)ncc2n1C [Example I-27],–,–,–,–,–,100,100,–,–,100,100,–,100
3.13,3.05,–,–,CCS(=O)(=O)c1ccc(-n2ccc3ncc(Cl)cc32)nc1-c1nc2cc(C(F)(F)F)ncc2n1C [Example I-28],–,–,–,–,80,100,100,–,100,–,100,–,90
